Reference: patent US8648116B2, “Derivatives of N-(arylamino) sulfonamides including polymorphs as inhibitors of MEK as well as compositions, methods of use and methods for preparing the same” (Ardea Biosciences, Inc., priority 2005, dated 2014)
Marks after values point to notes of the source that are not given here.

What was measured:
pERK in Colo205 tumors = assay: MEK inhibition (pERK, Western blot) against plasma concentration, tumor; type: in vivo, nu/nu mice
Description: Human tumors were implanted in nu/nu mice. Compound A was administered orally for 14 days once tumors were approximately 100 mm^3 in size. Tumor growth inhibition (TGI) was determined after 14 days of treatment as the reduction in the size of tumors in treated groups versus vehicle controls. The time to endpoint (TTE) was calculated as the time for the tumor to reach the specified endpoint volume or the last day of the study, whichever came first. Treatment outcome was determined from percent tumor growth delay (% TGD), defined as the percent increase in median TTE of treated versus vehicle-treated control mice. Animals were also monitored for regression responses. Levels of pERK in tumors and brain were determined by Western blots and correlated with plasma levels of Compound A for the pharmacodynamic/pharmacokinetic study. A number of tumor models were evaluated with different doses and dosing regimens. […] The effect of different dosing regimens was evaluated in A375 xenografts.
Female nu/nu mice implanted with Colo205 tumor cells were given a single dose of vehicle or Compound A at 2.5, 5, 10, or 25 mg/kg. Compound levels were determined in plasma samples and pERK levels were determined in tumor and brain samples collected at 2, 6, 12, and 24 hr post-dose. […]

[1] = test system: human renal proximal tubule epithelial cells (RPTEC); assay: Renal cell toxicity (AK release, ATP, 48 hr); type: cell-based
Description: Cryopreserved human renal proximal tubule epithelial cells (RPTEC) were obtained from Cambrex and were processed according to manufacturer's instructions. Cells were expanded for 4 days and then plated in 96-well plates at 50,000 cells/well for drug exposure.
After 48 hr, supernatant AK levels were determined using Toxilight, and cellular ATP levels were determined using CellTiterGlo. Full kill values were determined using 15 μM VRX-14686.

[2] = test system: orthotopic Hep3B2.1-7 human hepatic carcinoma; assay: Growth response of orthotopic Hep3B tumors in nude mice; type: in vivo, BALB/c nu/nu mice
Description: Female BALB/c nu/nu mice (University of Adelaide, Waite Campus, SA, Australia), aged 10-14 weeks, with a body weight range: of 19.1-29.94 g (mean 22.95 g) were used for the study. The mice were divided into 6 Study groups (4 treatment groups and 2 control groups) as follows: • Number of Mice per Group: 10 in Groups 1 to 5 inclusive • 15 in ‘Take-Rate’ Control Group (Group 6)
Hep3B human hepatic carcinoma cells (Passage 2 from working stock VP-Stock 353) were cultured in RPMI1640 cell culture medium, which was supplemented with 10% FBS and penicillin-streptomycin (501 U/mL final concentration). The cells were harvested by trypsinisation, washed twice in HBSS and counted. The cells were then resuspended in HBSS:Matrigel (1:1, v/v) and adjusted to a final volume containing 1×10^8 cells/mL. Prior to inoculation, the incision site was liberally swabbed with alcohol and an incision made through the abdominal wall to expose the liver. The needle was introduced through the surface of the liver where 10 μL of cells (1×10^6 cells) were discharged. The needle was held in this position for approximately 30 seconds to allow the Matrigel® to polymerize in order to avoid leakage of tumor cells into the abdominal cavity.
Treatment commenced 14 days post-inoculation. On Day 7 of the study (21 days post-inoculation), all mice from the ‘Take-Rate’ control group were culled and the livers visually assessed for the presence of tumors.
A stock solution was prepared weekly and stored at 4° C. Dosing solutions were prepared on each day of administration. […] The compound was administered at doses of 2, 10 and 50 mg/kg.
Liver and tumor wet weight were measured when each were excised post-mortem on the termination day of the study. At the termination of the study, livers were excised from all mice in each study group and weighed. The number of visible tumors, if present, was counted. These tumors were removed from the liver and weighed.
A One-Way Analysis of Variance (ANOVA) (All Pairwise Multiple Comparison Procedure and Multiple Comparison versus Control Group) was performed on liver weight and tumor weight data at the end of the study. […] The same statistical analyses were performed on the data for the tumor-bearing mice in the study.

Colo205 tumor cells = assay: ED50 in Colo205 xenografts (Example 94D); type: in vivo, nu/nu mice
Excerpt: Male nu/nu mice were implanted with Colo205 tumor cells. After 10 days animals were randomized by tumor size (range 126-256 mm^3) and treated with paclitaxel (IV, QODx5), vehicle or Compound A (PO, QDx14).

[3] = human, in vivo
[4] = test system: MDA-MB231 breast adenocarcinoma cells; assay: Anchorage-dependent growth inhibition (ATP content, 48 hr); type: cell-based, human
SK Mel28 melanoma cells = assay: as above; type: cell-based, human; details: SK Mel 28, separate study
[5] = Pharmacokinetics in healthy volunteers following multiple doses; details: 20 mg
[6] = test system: gastric carcinoma Hs746t cells; assay: Cell proliferation assay (CellTiterGlo, 48 hours); type: cell-based, human; details: 48 hours treatment
Description: Human gastric carcinoma Hs746t cells were obtained from ATCC (Manassas, Va.). […] For cell proliferation experiments, cells were plated in white 96-well plates with clear bases at 3000 cells/100 μl/well.

[7] = Compound A 2 mg/kg p.o. once daily Day 0 to 18, tumor-bearing mice
[8] = Compound A 10 mg/kg p.o. once daily Day 0 to 18, tumor-bearing mice
[9] = Compound A 50 mg/kg p.o. once daily Day 0 to 18, tumor-bearing mice

COc1cc(F)c(F)c(Nc2ccc(I)cc2F)c1NS(=O)(=O)C1(C[C@H](O)CO)CC1 [Compound A]
pERK formation in tumors (pERK in Colo205 tumors; Colo205 xenografts, pharmacodynamic/pharmacokinetic study): inhibition of pERK formation
EC50 (pERK in Colo205 tumors; Mus musculus, COLO 205, plasma concentration, Colo205-bearing nu/nu mice, single dose 2.5-25 mg/kg, non-linear regression): 73 nM
AK release (% Cell Survival) RPTEC Human ([1]; Compound A 1.1 (μM), 48 hr): 96%
ATP (% Cell Survival) RPTEC Human ([1]; Compound A 1.1 (μM), 48 hr): 94%
AK release (% Cell Survival) RPTEC Human ([1]; Compound A 3.3 (μM), 48 hr): 95%
ATP (% Cell Survival) RPTEC Human ([1]; Compound A 3.3 (μM), 48 hr): 91%
AK release (% Cell Survival) RPTEC Human ([1]; Compound A 10.0 (μM), 48 hr): 99%
ATP (% Cell Survival) RPTEC Human ([1]; Compound A 10.0 (μM), 48 hr): 85%
AK release (% Cell Survival) RPTEC Human ([1]; Compound A 30.0 (μM), 48 hr): 41%
ATP (% Cell Survival) RPTEC Human ([1]; Compound A 30.0 (μM), 48 hr): 34%
No. of Mice with Tumors (out of 10) ([2]; Compound A 2 mg/kg p.o. once daily Day 0 to 18): 6
Average Liver Weight [2, 7]: 2.775 g
Average Tumor Weight [2, 7]: 1.776 g
No. of Mice with Tumors (out of 10) ([2]; Compound A 10 mg/kg p.o. once daily Day 0 to 18): 7
Average Liver Weight [2, 8]: 2.551 g
Average Tumor Weight [2, 8]: 1.407 g
No. of Mice with Tumors (out of 10) ([2]; Compound A 50 mg/kg p.o. once daily Day 0 to 18): 4
Average Liver Weight [2, 9]: 1.677 g
Average Tumor Weight [2, 9]: 0.624 g
% TGI (Colo205 tumor cells; Compound A 2.5 mg/kg PO QDx14): 47* %
Day 15 Tumor Volume (Colo205 tumor cells; Compound A 2.5 mg/kg PO QDx14): 1187 ± 127 mm^3
% TGI (Colo205 tumor cells; Compound A 5 mg/kg PO QDx14): 48* %
Day 15 Tumor Volume (Colo205 tumor cells; Compound A 5 mg/kg PO QDx14): 1175 ± 104 mm^3
% TGI (Colo205 tumor cells; Compound A 10 mg/kg PO QDx14): 55* %
Day 15 Tumor Volume (Colo205 tumor cells; Compound A 10 mg/kg PO QDx14): 1045 ± 160 mm^3
% TGI (Colo205 tumor cells; Compound A 25 mg/kg PO QDx14): 70* %
Day 15 Tumor Volume (Colo205 tumor cells; Compound A 25 mg/kg PO QDx14): 762 ± 81 mm^3

COc1cc(F)c(F)c(Nc2ccc(I)cc2F)c1NS(=O)(=O)C1(C[C@H](O)CO)CC1
ATP depletion and cell lysis ([1]; RPTEC cells, 48 hr, cell lysis at 30 W (so in the source)): dose dependent ATP depletion and evident cell lysis
cytotoxicity ([1]; human renal proximal tubule epithelial cells): little cytotoxicity
half-lives [3]: 13 to 15 h
GI50 ([4]; MDA (MDA-MB231), 48 hr, ATP content): > 1000 nM
growth arrest in 2-dimensional anchorage dependent assays ([4]; MDA-MB231 cells): do not show
GI50 (SK Mel28 melanoma cells): 105 nM
liver and tumor weight ([2]; 2, 10 and 50 mg/kg p.o. once daily): dose-dependent trend in the decrease
average weight of the tumors vs Vehicle Control ([2]; tumor-bearing mice, 10 mg/kg p.o. once daily): significantly different
average weight of the tumors vs Vehicle Control ([2]; tumor-bearing mice, 50 mg/kg p.o. once daily): significantly different
average weight of the liver vs Vehicle Control ([2]; tumor-bearing mice, 50 mg/kg p.o. once daily, p<0.05): significantly different
Rac AUCτ (accumulation index) [5]: 1.24
proliferation of Hs746t cells [6]: inhibits the proliferation
